# Measurements reported in paper PMC12454493, “Insight on novel sulfamoylphenyl pyrazole derivatives as anticancer carbonic anhydrase inhibitors” (Molecular Diversity, 2024).
# How the values were obtained:
# HCT-15 = assay: NCI-60 one-dose SRB screen (Colon Cancer); type: cell-based; settings: Homo sapiens, single dose 10 µM, 48 h, read-out: Growth inhibition percent (GI %)
# Experimental: (§1) The National Cancer Institute (NCI) Developmental Therapeutic Program (www.dtp.nci.nih.gov) selected the 20 novel synthesized compounds 4a-e, 5a-e, 6a-c, 9a-e, 10 and 11 to test for their anticancer activity at a single dose of 10 µM using SRB assay. […] Supplementary Data S3; Table S1 presents the detailed screening results of the most promising compounds. The preliminary screening’s detailed results for the remaining compounds are elucidated in the (Supplementary Data S3; Table S2).
# (§2) The guidelines of the Drug Evaluation Branch’s protocol at the NCI in Bethesda served as the basis for the in vitro anticancer screening assays. at one dose 10 µM against a panel of 60 cancer cell lines. The human tumor cell lines used belonged to nine panels: leukemia, melanoma, lung, colon, CNS, ovarian, renal, prostate and breast cancers using the sulforhodamine B (SRB) assay in a 48 h drug exposure protocol.
# HCC-2998 = assay: NCI-60 one-dose SRB screen (Colon Cancer); type: cell-based; settings: Homo sapiens, single dose 10 µM, 48 h, read-out: Growth inhibition percent (GI %)
# Experimental: as §1, §2
# KM12 = assay: NCI-60 one-dose SRB screen (Colon Cancer); type: cell-based; settings: Homo sapiens, single dose 10 µM, 48 h, read-out: Growth inhibition percent (GI %)
# Experimental: as §1, §2
# COLO 205 = assay: NCI-60 one-dose SRB screen (Colon Cancer); type: cell-based; settings: Homo sapiens, single dose 10 µM, 48 h, read-out: Growth inhibition percent (GI %)
# Experimental: as §1, §2
# HT29 = assay: NCI-60 one-dose SRB screen (Colon Cancer); type: cell-based; settings: Homo sapiens, HT-29, single dose 10 µM, 48 h, read-out: Growth inhibition percent (GI %)
# Experimental: as §1, §2
# SW-620 = assay: NCI-60 one-dose SRB screen (Colon Cancer); type: cell-based; settings: Homo sapiens, single dose 10 µM, 48 h, read-out: Growth inhibition percent (GI %)
# Experimental: as §1, §2
# HCT-116 = assay: NCI-60 one-dose SRB screen (Colon Cancer); type: cell-based; settings: Homo sapiens, single dose 10 µM, 48 h, read-out: Growth inhibition percent (GI %)
# Experimental: as §1, §2
# SK-MEL-5 = assay: NCI-60 one-dose SRB screen (Melanoma); type: cell-based; settings: Homo sapiens, single dose 10 µM, 48 h, read-out: Growth inhibition percent (GI %)
# Experimental: as §1, §2
# MDA-MB-435 = assay: NCI-60 one-dose SRB screen (Melanoma); type: cell-based; settings: Homo sapiens, single dose 10 µM, 48 h, read-out: Growth inhibition percent (GI %)
# Experimental: as §1, §2
# SK-MEL-2 = assay: NCI-60 one-dose SRB screen (Melanoma); type: cell-based; settings: Homo sapiens, single dose 10 µM, 48 h, read-out: Growth inhibition percent (GI %)
# Experimental: as §1, §2
# UACC-62 = assay: NCI-60 one-dose SRB screen (Melanoma); type: cell-based; settings: Homo sapiens, single dose 10 µM, 48 h, read-out: Growth inhibition percent (GI %)
# Experimental: as §1, §2
# MALME-3M = assay: NCI-60 one-dose SRB screen (Melanoma); type: cell-based; settings: Homo sapiens, single dose 10 µM, 48 h, read-out: Growth inhibition percent (GI %)
# Experimental: as §1, §2
# UACC-257 = assay: NCI-60 one-dose SRB screen (Melanoma); type: cell-based; settings: Homo sapiens, single dose 10 µM, 48 h, read-out: Growth inhibition percent (GI %)
# Experimental: as §1, §2
# SK-MEL-28 = assay: NCI-60 one-dose SRB screen (Melanoma); type: cell-based; settings: Homo sapiens, single dose 10 µM, 48 h, read-out: Growth inhibition percent (GI %)
# Experimental: as §1, §2
# LOX IMVI = assay: NCI-60 one-dose SRB screen (Melanoma); type: cell-based; settings: Homo sapiens, single dose 10 µM, 48 h, read-out: Growth inhibition percent (GI %)
# Experimental: as §1, §2
# M14 = assay: NCI-60 one-dose SRB screen (Melanoma); type: cell-based; settings: Homo sapiens, single dose 10 µM, 48 h, read-out: Growth inhibition percent (GI %)
# Experimental: as §1, §2
# NCI-H522 = assay: NCI-60 one-dose SRB screen (Non-Small Cell Lung Cancer); type: cell-based; settings: Homo sapiens, single dose 10 µM, 48 h, read-out: Growth inhibition percent (GI %)
# Experimental: as §1, §2
# NCI-H226 = assay: as above; type: cell-based; settings: Homo sapiens, single dose 10 µM, 48 h, read-out: Growth inhibition percent (GI %)
# Experimental: as §1, §2
# HOP-62 = assay: as above; type: cell-based; settings: Homo sapiens, single dose 10 µM, 48 h, read-out: Growth inhibition percent (GI %)
# Experimental: as §1, §2
# NCI-H460 = assay: as above; type: cell-based; settings: Homo sapiens, single dose 10 µM, 48 h, read-out: Growth inhibition percent (GI %)
# Experimental: as §1, §2
# NCI-H23 = assay: as above; type: cell-based; settings: Homo sapiens, single dose 10 µM, 48 h, read-out: Growth inhibition percent (GI %)
# Experimental: as §1, §2
# NCI-H322M = assay: as above; type: cell-based; settings: Homo sapiens, single dose 10 µM, 48 h, read-out: Growth inhibition percent (GI %)
# Experimental: as §1, §2
# EKVX = assay: as above; type: cell-based; settings: Homo sapiens, single dose 10 µM, 48 h, read-out: Growth inhibition percent (GI %)
# Experimental: as §1, §2
# A549/ATCC = assay: as above; type: cell-based; settings: Homo sapiens, single dose 10 µM, 48 h, read-out: Growth inhibition percent (GI %)
# Experimental: as §1, §2
# OVCAR-4 = assay: NCI-60 one-dose SRB screen (Ovarian cancer); type: cell-based; settings: Homo sapiens, single dose 10 µM, 48 h, read-out: Growth inhibition percent (GI %)
# Experimental: as §1, §2
# IGROV1 = assay: NCI-60 one-dose SRB screen (Ovarian cancer); type: cell-based; settings: Homo sapiens, IGROV-1, single dose 10 µM, 48 h, read-out: Growth inhibition percent (GI %)
# Experimental: as §1, §2
# NCI/ADR-RES = assay: NCI-60 one-dose SRB screen (Ovarian cancer); type: cell-based; settings: Homo sapiens, single dose 10 µM, 48 h, read-out: Growth inhibition percent (GI %)
# Experimental: as §1, §2
# OVCAR-3 = assay: NCI-60 one-dose SRB screen (Ovarian cancer); type: cell-based; settings: Homo sapiens, single dose 10 µM, 48 h, read-out: Growth inhibition percent (GI %)
# Experimental: as §1, §2
# OVCAR-8 = assay: NCI-60 one-dose SRB screen (Ovarian cancer); type: cell-based; settings: Homo sapiens, single dose 10 µM, 48 h, read-out: Growth inhibition percent (GI %)
# Experimental: as §1, §2
# OVCAR-5 = assay: NCI-60 one-dose SRB screen (Ovarian cancer); type: cell-based; settings: Homo sapiens, single dose 10 µM, 48 h, read-out: Growth inhibition percent (GI %)
# Experimental: as §1, §2
# SK-OV-3 = assay: NCI-60 one-dose SRB screen (Ovarian cancer); type: cell-based; settings: Homo sapiens, single dose 10 µM, 48 h, read-out: Growth inhibition percent (GI %)
# Experimental: as §1, §2
# SF-539 = assay: NCI-60 one-dose SRB screen (CNS Cancer); type: cell-based; settings: Homo sapiens, single dose 10 µM, 48 h, read-out: Growth inhibition percent (GI %)
# Experimental: as §1, §2
# SNB-75 = assay: NCI-60 one-dose SRB screen (CNS Cancer); type: cell-based; settings: Homo sapiens, single dose 10 µM, 48 h, read-out: Growth inhibition percent (GI %)
# Experimental: as §1, §2
# SF-268 = assay: NCI-60 one-dose SRB screen (CNS Cancer); type: cell-based; settings: Homo sapiens, single dose 10 µM, 48 h, read-out: Growth inhibition percent (GI %)
# Experimental: as §1, §2
# SNB-19 = assay: NCI-60 one-dose SRB screen (CNS Cancer); type: cell-based; settings: Homo sapiens, single dose 10 µM, 48 h, read-out: Growth inhibition percent (GI %)
# Experimental: as §1, §2
# U251 = assay: NCI-60 one-dose SRB screen (CNS Cancer); type: cell-based; settings: Homo sapiens, U-251, single dose 10 µM, 48 h, read-out: Growth inhibition percent (GI %)
# Experimental: as §1, §2
# SF-295 = assay: NCI-60 one-dose SRB screen (CNS Cancer); type: cell-based; settings: Homo sapiens, single dose 10 µM, 48 h, read-out: Growth inhibition percent (GI %)
# Experimental: as §1, §2
# hCA XII = hCA XII (Homo sapiens, UniProt O43570); assay: CA inhibitory activity, spectrophotometric p-NPA assay; type: biochemical; settings: p-NPA substrate, pH 7.5, 25 °C, triplicate; read-out: IC50 (µM) ± SD hCA XII
# Chain of hCA XII (O43570 25-354): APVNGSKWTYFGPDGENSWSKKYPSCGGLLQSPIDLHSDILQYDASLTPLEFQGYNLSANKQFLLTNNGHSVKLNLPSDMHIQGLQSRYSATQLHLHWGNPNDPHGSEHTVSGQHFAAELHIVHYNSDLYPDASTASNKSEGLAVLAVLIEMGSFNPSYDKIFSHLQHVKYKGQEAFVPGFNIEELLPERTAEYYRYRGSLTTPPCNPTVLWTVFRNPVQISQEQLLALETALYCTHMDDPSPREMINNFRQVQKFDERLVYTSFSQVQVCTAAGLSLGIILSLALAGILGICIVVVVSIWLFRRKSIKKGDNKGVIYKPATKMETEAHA
# hCA IX = hCA IX (Homo sapiens, UniProt Q16790); assay: as above; type: biochemical; settings: p-NPA substrate, pH 7.5, 25 °C, triplicate; read-out: IC50 (µM) ± SD hCA IX
# Experimental: The software used to calculate CA IC50 along with statistical analysis of the results is GraphPad Prism 9.00. Results were estimated by using one-way ANOVA and the Bonferroni’s multiple comparisons posthoc test was performed (P < 0.05) [46]
# Carbonic anhydrase inhibitory activity:
# The spectrophotometric assay was conducted in HEPES-Tris buffer, NaCl of pH 7.5 (20mM) at 25◦C. Each inhibitory well-consisted of 50 μL of assay buffer solution, 20 μL of hCA enzyme solution (20 ng/μL in Assay Buffer), and 50 μL of test compound in HPLC grade DMSO (maintain 10% of the final concentration). The mixture solution was
# Substrate p-nitrophenyl acetate (p-NPA) (0.7mM) was prepared in HPLC grade methanol and the reaction was started by adding 20 μL to a well in a 96-well-plate. The amount of product formed was measured for 30 min continuously at 1 min intervals at 400 nm in a 96-well-plate using xMARK microplate spectrophotometer, Bio-Rad (USA). The activity of the controlled compound was taken as 100%. All experiments were carried out in triplicates of each used concentration, and results are represented as a
# MOLT-4 = assay: NCI-60 one-dose SRB screen (Leukemia); type: cell-based; settings: Homo sapiens, single dose 10 µM, 48 h, read-out: Growth inhibition percent (GI %)
# Experimental: as §1, §2
# SR = assay: NCI-60 one-dose SRB screen (Leukemia); type: cell-based; settings: Homo sapiens, single dose 10 µM, 48 h, read-out: Growth inhibition percent (GI %)
# Experimental: as §1, §2
# K-562 = assay: NCI-60 one-dose SRB screen (Leukemia); type: cell-based; settings: Homo sapiens, K562, single dose 10 µM, 48 h, read-out: Growth inhibition percent (GI %)
# Experimental: as §1, §2
# RPMI-8226 = assay: NCI-60 one-dose SRB screen (Leukemia); type: cell-based; settings: Homo sapiens, single dose 10 µM, 48 h, read-out: Growth inhibition percent (GI %)
# Experimental: as §1, §2
# HL-60(TB) = assay: NCI-60 one-dose SRB screen (Leukemia); type: cell-based; settings: Homo sapiens, single dose 10 µM, 48 h, read-out: Growth inhibition percent (GI %)
# Experimental: as §1, §2
# CCRF-CEM = assay: NCI-60 one-dose SRB screen (Leukemia); type: cell-based; settings: Homo sapiens, single dose 10 µM, 48 h, read-out: Growth inhibition percent (GI %)
# Experimental: as §1, §2
smiles,measurement,setting,value
"CCOC(=O)c1ccc(NC(=O)COC(=O)c2cn(-c3ccc(S(N)(=O)=O)cc3)nc2-c2ccc(Br)cc2)cc1 [Compound 5d, 2-[(4-(Ethoxycarbonyl)phenyl)amino]-2-oxoethyl 3-(4-bromophenyl)-1-(4-sulfamoylphenyl)-1H-pyrazole-4-carboxylate]",inhibition at 10 µM,HCT-15,76.4%
same,inhibition at 10 µM,HCC-2998,54.3%
same,inhibition at 10 µM,KM12,76.7%
same,inhibition at 10 µM,COLO 205,61.2%
same,inhibition at 10 µM,HT29,88.3%
same,inhibition at 10 µM,SW-620,50.6%
same,inhibition at 10 µM,HCT-116,73.6%
same,inhibition at 10 µM,SK-MEL-5,36.3%
same,inhibition at 10 µM,MDA-MB-435,61.2%
same,inhibition at 10 µM,SK-MEL-2,49.1%
same,inhibition at 10 µM,UACC-62,58.7%
same,inhibition at 10 µM,MALME-3M,46.1%
same,inhibition at 10 µM,UACC-257,38.3%
same,inhibition at 10 µM,SK-MEL-28,55.6%
same,inhibition at 10 µM,LOX IMVI,72.9%
same,inhibition at 10 µM,M14,73.7%
same,inhibition at 10 µM,NCI-H522,64.9%
same,inhibition at 10 µM,NCI-H226,48.3%
same,inhibition at 10 µM,HOP-62,26.2%
same,inhibition at 10 µM,NCI-H460,65.7%
same,inhibition at 10 µM,NCI-H23,49.4%
same,inhibition at 10 µM,NCI-H322M,21.2%
same,inhibition at 10 µM,EKVX,62.5%
same,inhibition at 10 µM,A549/ATCC,62.9%
same,inhibition at 10 µM,OVCAR-4,64%
same,inhibition at 10 µM,IGROV1,31.7%
same,inhibition at 10 µM,NCI/ADR-RES,28.2%
same,inhibition at 10 µM,OVCAR-3,62.6%
same,inhibition at 10 µM,OVCAR-8,13.3%
same,inhibition at 10 µM,OVCAR-5,38%
same,inhibition at 10 µM,SK-OV-3,29%
same,inhibition at 10 µM,SF-539,63.3%
same,inhibition at 10 µM,SNB-75,74.9%
same,inhibition at 10 µM,SF-268,64.1%
same,inhibition at 10 µM,SNB-19,57.9%
same,inhibition at 10 µM,U251,57.9%
same,inhibition at 10 µM,SF-295,57.5%
same,IC50,hCA XII,0.99 ± 0.037 µM
same,IC50,hCA IX,0.631 ± 0.029 µM
same,inhibition at 10 µM,MOLT-4,94%
same,inhibition at 10 µM,SR,80.1%
same,inhibition at 10 µM,K-562,80.4%
same,inhibition at 10 µM,RPMI-8226,80.3%
same,inhibition at 10 µM,HL-60(TB),89.4%
same,inhibition at 10 µM,CCRF-CEM,85.8%
